According to BindingDB's records for patent US12497405 (Merck Sharp & Dohme, 2025):

How the values were obtained:
[1] = target: T1, DNA polymerase catalytic subunit (Varicella-zoster virus (strain Dumas), UniProt P09252); assay: CMV and VZV Polymerase Assays
T1 sequence (P09252 whole entry): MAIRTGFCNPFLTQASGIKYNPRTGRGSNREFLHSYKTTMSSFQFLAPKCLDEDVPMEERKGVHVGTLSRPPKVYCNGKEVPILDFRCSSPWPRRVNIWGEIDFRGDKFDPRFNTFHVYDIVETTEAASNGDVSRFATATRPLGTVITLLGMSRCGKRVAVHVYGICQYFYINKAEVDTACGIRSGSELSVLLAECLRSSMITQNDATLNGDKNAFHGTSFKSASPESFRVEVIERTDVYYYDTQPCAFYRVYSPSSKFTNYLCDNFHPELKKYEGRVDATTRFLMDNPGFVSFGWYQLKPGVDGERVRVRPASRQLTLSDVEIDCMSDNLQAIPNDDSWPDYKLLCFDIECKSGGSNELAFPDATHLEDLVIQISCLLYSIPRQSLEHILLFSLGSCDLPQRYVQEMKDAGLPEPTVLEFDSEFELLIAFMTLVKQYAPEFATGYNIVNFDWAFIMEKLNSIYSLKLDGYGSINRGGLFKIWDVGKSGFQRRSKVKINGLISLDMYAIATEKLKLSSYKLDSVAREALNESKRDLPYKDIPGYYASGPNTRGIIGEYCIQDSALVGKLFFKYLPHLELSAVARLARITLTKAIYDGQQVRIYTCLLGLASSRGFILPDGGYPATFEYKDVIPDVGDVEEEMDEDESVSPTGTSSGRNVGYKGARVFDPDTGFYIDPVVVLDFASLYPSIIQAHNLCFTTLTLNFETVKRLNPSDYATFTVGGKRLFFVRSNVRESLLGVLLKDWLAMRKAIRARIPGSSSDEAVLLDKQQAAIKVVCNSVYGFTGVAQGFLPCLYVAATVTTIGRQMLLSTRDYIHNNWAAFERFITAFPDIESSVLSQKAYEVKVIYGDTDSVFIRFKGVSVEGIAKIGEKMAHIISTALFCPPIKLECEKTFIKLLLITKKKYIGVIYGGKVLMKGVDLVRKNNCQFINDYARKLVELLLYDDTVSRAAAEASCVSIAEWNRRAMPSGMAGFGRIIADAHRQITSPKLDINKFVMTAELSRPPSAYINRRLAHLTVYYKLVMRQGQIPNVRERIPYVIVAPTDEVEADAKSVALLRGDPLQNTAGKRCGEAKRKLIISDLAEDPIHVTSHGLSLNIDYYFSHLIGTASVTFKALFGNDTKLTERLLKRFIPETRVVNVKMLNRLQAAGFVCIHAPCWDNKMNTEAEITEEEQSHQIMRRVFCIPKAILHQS
Procedure: (§1) Human cytomegalovirus and varicella zoster virus DNA polymerases were expressed via baculovirus vector in SF21 cells and purified. Heterodimeric nucleic acid substrate used in the herpesvirus polymerase reactions were generated by annealing a 59-mer template to a 17-mer digoxigenin-labeled primer. Polymerase (HCMV final concentration of 0.2 nM; VZV final concentration of 0.4 nM) was combined with an inhibitor compound or DMSO in assay buffer (10 mM HEPES, pH 7.5, 25 mM KCl, 25 mM NaCl, 5 mM MgCl2, 5% glycerol, 0.67 mg/ml bovine serum albumin, and 1 mM tris(2-carboxyethyl)phosphine)), and this mixture was pre-incubated for 30 minutes at room temperature in 384-well microtiter plates. The polymerization reaction was initiated by the addition of template/primer substrate (final concentration: 1.6 nM), and dNTPs (final concentration: 24 nM dCTP, 24 nMdGTP, 16 nM dATP, 16 nM dTTP, and 0.8 nM biotin-dUTP). After a 60 minute incubation period at 37° C., the reactions were terminated using quench buffer (25 mM HEPES pH 7.5, 100 mM NaCl, 0.25% Tween-20, 12 mM EDTA, and 1 mg/ml bovine serum albumin). Incorporation of biotinylated UTP was detected with 2.5-5 μg/mL anti-DIG AlphaLISA acceptor beads and 5-10 μg/mL streptavidin AlphaLISA donor beads (PerkinElmer). […]

[2] = target: T2, DNA polymerase catalytic subunit (Human cytomegalovirus (strain AD169), UniProt P08546); assay: CMV and VZV Polymerase Assays
T2 sequence (P08546 whole entry): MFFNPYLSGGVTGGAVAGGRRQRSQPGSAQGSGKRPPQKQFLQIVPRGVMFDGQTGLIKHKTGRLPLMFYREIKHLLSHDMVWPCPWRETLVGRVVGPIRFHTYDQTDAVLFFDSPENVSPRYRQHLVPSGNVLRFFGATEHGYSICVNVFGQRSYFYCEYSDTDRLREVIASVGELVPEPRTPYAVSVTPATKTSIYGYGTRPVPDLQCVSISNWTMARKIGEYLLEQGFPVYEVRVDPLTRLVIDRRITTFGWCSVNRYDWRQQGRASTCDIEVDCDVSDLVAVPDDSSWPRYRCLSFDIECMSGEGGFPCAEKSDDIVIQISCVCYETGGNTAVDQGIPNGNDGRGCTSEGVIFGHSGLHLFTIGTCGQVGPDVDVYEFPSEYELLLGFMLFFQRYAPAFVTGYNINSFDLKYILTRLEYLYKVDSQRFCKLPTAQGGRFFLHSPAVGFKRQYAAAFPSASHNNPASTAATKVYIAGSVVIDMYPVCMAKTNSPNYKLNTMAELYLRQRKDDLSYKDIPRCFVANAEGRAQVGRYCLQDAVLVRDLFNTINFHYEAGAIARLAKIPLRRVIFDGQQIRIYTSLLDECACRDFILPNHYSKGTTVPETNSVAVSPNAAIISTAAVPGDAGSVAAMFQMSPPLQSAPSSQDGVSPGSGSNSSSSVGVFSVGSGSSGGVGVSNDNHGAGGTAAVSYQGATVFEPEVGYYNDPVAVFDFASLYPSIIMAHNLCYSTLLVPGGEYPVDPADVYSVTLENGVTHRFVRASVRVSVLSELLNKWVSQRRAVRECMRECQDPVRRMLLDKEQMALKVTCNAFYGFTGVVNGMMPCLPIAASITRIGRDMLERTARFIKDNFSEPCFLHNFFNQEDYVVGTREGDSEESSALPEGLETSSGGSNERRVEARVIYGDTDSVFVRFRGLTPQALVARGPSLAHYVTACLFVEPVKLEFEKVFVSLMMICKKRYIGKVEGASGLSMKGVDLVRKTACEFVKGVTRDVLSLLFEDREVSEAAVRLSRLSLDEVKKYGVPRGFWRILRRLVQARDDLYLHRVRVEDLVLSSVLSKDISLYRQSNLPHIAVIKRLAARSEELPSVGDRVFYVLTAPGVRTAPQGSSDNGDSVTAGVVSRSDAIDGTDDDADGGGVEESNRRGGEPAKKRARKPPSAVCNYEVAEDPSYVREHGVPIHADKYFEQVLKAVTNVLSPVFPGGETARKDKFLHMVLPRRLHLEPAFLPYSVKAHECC
Procedure: as §1

`O=C1OC[C@@H]2C[C@@H](Oc3cc4c(=O)n(Cc5ccc(Cl)cc5)cnc4nc3-c3cnco3)CCN12` [US12497405, Compound 37] gave an IC50 [1] of 0.22 nM and an IC50 [2] of 1.1 nM.
